In ChEMBL document CHEMBL1139343, “Pharmacophore guided discovery of small-molecule human apurinic/apyrimidinic endonuclease 1 inhibitors” (J Med Chem, 2009):

These compounds were tested against DNA repair nuclease/redox regulator APEX1 (Homo sapiens, UniProt P27695) (assay: Inhibition of purified human recombinant APE1 expressed in Escherichia coli M15 cells).
Chain of DNA repair nuclease/redox regulator APEX1 (P27695 whole entry): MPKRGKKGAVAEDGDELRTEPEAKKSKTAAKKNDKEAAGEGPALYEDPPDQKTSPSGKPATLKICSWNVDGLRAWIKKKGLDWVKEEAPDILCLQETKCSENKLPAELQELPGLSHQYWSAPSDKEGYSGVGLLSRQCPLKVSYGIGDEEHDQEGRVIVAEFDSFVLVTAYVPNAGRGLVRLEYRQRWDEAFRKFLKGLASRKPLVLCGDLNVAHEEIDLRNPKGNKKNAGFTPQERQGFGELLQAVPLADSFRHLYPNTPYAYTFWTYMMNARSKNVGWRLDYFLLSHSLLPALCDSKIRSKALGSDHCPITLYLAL

IC50 [µM]	SMILES
26	Cc1oc(C)c(C(=O)NCC(=O)O)c1C(=O)NCC(=O)O
11	Cc1ccc(OCc2ccoc2C(=O)O)cc1C
87	O=C(O)c1cccc(S(=O)(=O)N2CCCC(c3nc(O)c4nnn(Cc5ccccc5Cl)c4n3)C2)c1 (centres undefined)
> 100	Cc1ccc(-c2nnc3c4ccccc4c(C)nn23)cc1S(=O)(=O)N1CCOCC1
11	O=C(O)CC1OC(=O)c2cc3c(cc21)C(=O)OC3CC(=O)O (centres undefined)
> 100	CCCNS(=O)(=O)c1ccc(OCC(=O)NCC2CCCO2)c(C)c1 (centres undefined)
50	C/C(CCc1ccc2c(c1)OCO2)=N\N=C1/NC(=O)CC(C(=O)O)S1 (centres undefined)
8	CC(Oc1cc(OC(C)C(=O)O)c2c(c1)oc(=O)c1ccccc12)C(=O)O (centres undefined)
30	COc1ccc(S(=O)(=O)N2CCC(C(=O)O)CC2)cc1C(=O)O
> 100	COc1cc(S(=O)(=O)NC2CCCCC2C)ccc1-n1cnnn1 (centres undefined)
> 100	CCn1c(SCC(=O)c2cccs2)nnc1-c1ccc(NS(C)(=O)=O)cc1
100	Cc1cc(NC(=O)CCC(=O)O)ccc1NC(=O)c1cccs1
> 100	CN(c1ccc(C(=O)O)cc1)S(=O)(=O)c1cccs1
100	O=S(=O)(O)CC(O)CSc1nc2ccccc2s1 (centres undefined)
6	O=C(O)CN1C(=O)/C(=C2\SC(=S)N(c3ccc(Br)cc3)C2=O)c2ccccc21
> 100	CCS(=O)(=O)Nc1cc2c(cc1C)C(S(=O)(=O)CC)C1=C2CCC1 (centres undefined)
> 100	O=C(O)CNC(=O)c1cc(=O)[nH]c(=O)[nH]1
> 100	COc1ccc(N(CC(=O)NC2CCCC2)C(=O)C2CSC(=O)C2)cc1 (centres undefined)
> 100	O=C(CN1C(=O)c2ccccc2S1(=O)=O)Nc1ccc(Cl)c(C(=O)O)c1
> 100	COC(=O)C1C(=O)c2c([nH]c(C(=O)OCC3CCCO3)c2C)CC1C (centres undefined)
> 100	COC(=O)C1C(=O)C2=C(CC1C)NC(C)=C(C(=O)OC1CCCC1)C2c1ccccc1C (centres undefined)
> 100	O=S(=O)(c1cc(S(=O)(=O)N2CCOCC2)c2n[n+]3c4cc(S(=O)(=O)N5CCOCC5)cc(S(=O)(=O)N5CCOCC5)c4[n-]n3c2c1)N1CCOCC1

IC50 [µM]	SMILES
6	O=C(O)c1ccc(S(=O)(=O)c2ccc(Sc3ccc(C(=O)O)c(C(=O)O)c3)cc2)cc1
100	C=CCN1C(=O)C(Cc2ccccc2)S/C1=N/c1ccc(C(=O)O)cc1 (centres undefined)
22	Cc1oc(C(=O)O)cc1CSCC(C)C(=O)O (centres undefined)
40	O=C(O)CCC(=O)NC(Cc1ccccc1)C(=O)O (centres undefined)
> 100	CC(C)c1nnc(NC(=O)C2CCCN2S(=O)(=O)c2ccc(F)cc2)s1 (centres undefined)
> 100	O=C(O)c1cccc(NS(=O)(=O)c2cccc3nsnc23)c1
40	CN(C)c1ccc(-c2noc(C3CCN(S(=O)(=O)c4cccc(C(=O)O)c4)CC3)n2)cc1
> 100	CCn1c(SCCN2CCCC2)nnc1C1CCCN(S(C)(=O)=O)C1 (centres undefined)
9	O=C(O)CCc1ccc(-c2ccc(F)cc2)n1CC(=O)O
33	O=C(O)CSc1cccc(C(=O)O)c1
> 100	O=C(O)CSC1CCS(=O)(=O)C1 (centres undefined)
> 100	Cc1ccc(S(=O)(=O)CCc2nnc(NC(=O)CC3CC4CCC3C4)s2)cc1 (centres undefined)
> 100	Cc1cc(C(=O)O)c(CSCc2cc(C(=O)O)c(C)o2)o1
6	Cc1cc(CSCc2cc(C(=O)O)c(C)o2)oc1C(=O)O
> 100	CCN(Cc1ccccc1)S(=O)(=O)c1ccc(S(=O)(=O)NC2CCC(C)CC2)cc1 (centres undefined)
> 100	CCS(=O)(=O)N1CCCC(c2nc(O)c3nnn(Cc4ccccc4)c3n2)C1 (centres undefined)
100	CCN(CC)S(=O)(=O)c1cccc(C(=O)Nc2ccccc2C(=O)O)c1
> 100	O=C(Cn1cc(C(=O)c2ccco2)c2ccccc21)NCc1cccnc1
60	Cc1nc(N(CCC(=O)O)CCC(=O)O)sc1C(C)(C)C
35	O=C(O)CCS(=O)(=O)c1cccc2c(S(=O)(=O)CCC(=O)O)cccc12
> 100	COc1ccc(/C=C/C(=O)O)cc1S(=O)(=O)NCc1cccnc1
> 100	N#C/C(=C\c1ccc(-c2ccccc2[N+](=O)[O-])o1)S(=O)(=O)c1ccccc1
